Source: US20130131161A1, “METHODS AND COMPOSITIONS FOR CARDIOVASCULAR DISEASES AND CONDITIONS” (priority 2009, published 2013)

Tested on: Human umbilical vein endothelial cells (HUVECs)
Assay: Comparison of LA-419 and ISDN: NO and ONOO− release from HUVECs measured with tandem electrochemical nanosensors (Example 1)
Assay type: cell-based
Conditions: for NO release (mean ± S.D.) / ONOO− release (mean ± S.D.): 500 nM, 12 hours, then CaI (1.0 μM); for decrease in NO release / increase in levels of ONOO− / decrease in the NO/ONOO− ratio: pretreatment 12 h
Description: Human umbilical vein endothelial cells (HUVECs) were isolated into primary cultures and purchased as proliferating cells from Clonetics (San Diego, Calif.). All cell culture donors were healthy, with no pregnancy or prenatal complications. The cultured cells were incubated in 95% air/5% CO2 at 37° C. and passage by an enzymatic (trypsin) procedure. The confluent cells (4 to 5×10^5 cells per 35-mm dish) were placed with minimum essential medium containing 3 mM L-arginine and 0.1 mM BH4 [(6R)-5,6,7,8-tetrahydrobiopterin]. Before the experiments, the cells (from second or third passage) were rinsed twice with Tyrode-HEPES buffer with 1.8 mM CaCl2. ISDN was obtained from Sigma-Aldrich.
Concurrent measurements of NO and ONOO^− were carried out with tandem electrochemical nanosensors combined into one working unit with a total diameter of 200-500 nm (FIG. 1). Their design was based on previously developed and well-characterized chemically modified carbon-fiber technology (Malinski and Taha, 1992; Lvovich and Scheeline, 1997). Each of the nanosensors was made by depositing a sensing material on the tip of a carbon fiber (length 4-5 μm, diameter 0.2-0.5 μm). The fibers were sealed with nonconductive epoxy and electrically connected to copper wires with conductive silver epoxy. A conductive film of polymeric nickel (II) tetrakis(3-methoxy-4-hydroxyphenyl)porphyrin for the NO-sensor and polymeric film of Mn (III) [2.2]paracyclophanylporphyrin was used for the ONOO^−-sensor.
A module of NO/ONOO^− nanosensors (diameter 1-2 μm) with a platinum wire (0.1 mm) counter electrode and saturated calomel reference electrode (SCE) were applied. Differential pulse voltammetry (DPV) and amperometry were performed with a computer-based Gamry VFP600 multichannel potentiostat. DPV was used to measure the basal NO and ONOO^− concentrations, and amperometry was used to measure changes in NO and ONOO^− concentrations from its basal level with time. The DPV current at the peak potential characteristic for NO oxidation (0.65 V) and ONOO^− reduction (−0.45 V) was directly proportional to the local concentrations of these compounds in the immediate vicinity of the sensor. Linear calibration curves (current vs. concentration) were constructed for each sensor from 10 nM to 3 μM before and after measurements with aliquots of NO and ONOO^− standard solutions, respectively. The detection limit of the sensors was 1.0 nM.
The quantification of each analyte (concentration in nM) was performed using a maximum current from amperograms and standard calibration curves. A reproducibility of measurements with nanosensors is relatively high (between 5-12%). […] The sensors were slowly raised 5±2 μm from the surface of a single endothelial cell. The eNOS agonist, calcium ionophore A23187 (CaI) as well as the different drugs were then added to the surrounding media at the cell surface with a nanoinjector that was also positioned by a computer controlled-micromanipulator.
The HUVEC preparation is stable over the course of these experiments with the cells remaining viable in culture for >24 hours. Under non-stimulating conditions, basal levels of NO release are very low (<30 nM). Measurement of NO release as a function of treatment was conducted in individual endothelial cells. Multiple measurements of NO release can be conducted on single cells following a brief refractory period. For robust statistical analysis, separate cells were used for each concentration and type of drug used in these analyses.

[1] = HUVECs from Non-Hispanic Whites

For `O=[N+]([O-])O[C@H]1CO[C@H]2[C@@H]1OC[C@H]2O[N+](=O)[O-]` [ISDN, isosorbide dinitrate], the “NO release (mean ± S.D.)” value (HUVECs from African Americans) was 218 ± 16 nM, the “ONOO− release (mean ± S.D.)” value (HUVECs from African Americans) was 552 ± 11 nM and the “NO release (mean ± S.D.)” value [1] was 343 ± 11 nM. For the same molecule, the “ONOO− release (mean ± S.D.)” value [1] was 323 ± 9 nM, the “decrease in NO release” value (HUVECs from African Americans) was 12% and the “increase in levels of ONOO−” value (HUVECs from African Americans) was 18%. The “decrease in the NO/ONOO− ratio” value (HUVECs from African Americans, p<0.05) was 25%, the “decrease in NO release” value (HUVECs from non-Hispanic whites) was 11% and the “decrease in the NO/ONOO− ratio” value (HUVECs from non-Hispanic whites, p<0.01) was 23%. For the same molecule, the “increase in levels of ONOO−” value (HUVECs from whites) was 16%.
